Data published in ChEMBL document CHEMBL5390243, “Catecholamine Derivatives: Natural Occurrence, Structural Diversity, and Biological Activity” (J Nat Prod, 2023).
Values belong to the molecule of their own block, whether it stands above or below them.

Legend:
RAW264.7 [1] = assay: Anti-inflammatory activity against mouse RAW264.7 cells assessed as inhibition of LPS-induced NO production at 100 ng/ml pretreated with compound for 2 hrs followed by LPS stimulation and measured after 24 hrs by Griess reagent based analysis; assay type: functional; set-up: scale not given: the % may be the effect or the level left; conditions: time 26 hrs
RAW264.7 [2] = assay: Antiinflammatory activity against LPS-induced mouse RAW264.7 cells assessed as reduction in IL-6 mRNA expression at 10 uM by RT-PCR analysis; assay type: functional; set-up: scale not given: the % may be the effect or the level left
SGC-7901 = assay: Cytotoxicity against human SGC-7901 cells assessed as reduction in cell viability measured after 72 hrs by MTT assay; assay type: functional, cell-based; conditions: SGC-7901, 72 h
[3] = biological target: Glycogen synthase kinase-3 beta (Homo sapiens, UniProt P49841); assay: Inhibition of N-terminal His6-tagged human recombinant GSK3beta expressed in baculovirus-infected Sf21 cells incubated for 60 mins in presence of ATP by ADP-glo analysis
Chain of Glycogen synthase kinase-3 beta (P49841 whole entry): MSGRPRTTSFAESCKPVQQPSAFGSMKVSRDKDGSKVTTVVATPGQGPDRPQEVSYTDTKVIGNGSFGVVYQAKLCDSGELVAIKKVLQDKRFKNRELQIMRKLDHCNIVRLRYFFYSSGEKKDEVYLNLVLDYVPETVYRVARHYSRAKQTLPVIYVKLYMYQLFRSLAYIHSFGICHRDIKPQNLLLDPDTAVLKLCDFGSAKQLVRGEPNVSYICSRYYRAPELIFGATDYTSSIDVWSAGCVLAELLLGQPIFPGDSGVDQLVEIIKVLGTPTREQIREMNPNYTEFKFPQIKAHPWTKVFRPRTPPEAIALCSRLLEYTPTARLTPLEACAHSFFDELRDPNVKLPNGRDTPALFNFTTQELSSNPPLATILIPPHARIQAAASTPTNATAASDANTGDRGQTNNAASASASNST

[4] = biological target: Cyclin-dependent kinase 5/CDK5 activator 1 (Homo sapiens, UniProt Q00535); assay: Inhibition of N-terminal full length human recombinant CDK5/p25 expressed in baculovirus-infected Sf21 cells incubated for 60 mins in presence of ATP by kinase-glo luminescent assay
Chain of Cyclin-dependent kinase 5/CDK5 activator 1 (Q00535 whole entry, the tested form may be a part, canonical isoform): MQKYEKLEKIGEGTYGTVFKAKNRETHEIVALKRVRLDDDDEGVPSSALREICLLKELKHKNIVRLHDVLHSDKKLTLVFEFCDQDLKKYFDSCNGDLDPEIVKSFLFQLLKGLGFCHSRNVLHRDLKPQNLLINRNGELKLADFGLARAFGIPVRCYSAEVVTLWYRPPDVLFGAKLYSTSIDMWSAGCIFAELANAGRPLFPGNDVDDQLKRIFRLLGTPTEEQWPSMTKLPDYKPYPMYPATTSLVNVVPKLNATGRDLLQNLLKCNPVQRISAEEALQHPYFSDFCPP
Chain of Cyclin-dependent kinase 5/CDK5 activator 1 (Q15078 whole entry, further chain, the tested form may be a part, canonical isoform): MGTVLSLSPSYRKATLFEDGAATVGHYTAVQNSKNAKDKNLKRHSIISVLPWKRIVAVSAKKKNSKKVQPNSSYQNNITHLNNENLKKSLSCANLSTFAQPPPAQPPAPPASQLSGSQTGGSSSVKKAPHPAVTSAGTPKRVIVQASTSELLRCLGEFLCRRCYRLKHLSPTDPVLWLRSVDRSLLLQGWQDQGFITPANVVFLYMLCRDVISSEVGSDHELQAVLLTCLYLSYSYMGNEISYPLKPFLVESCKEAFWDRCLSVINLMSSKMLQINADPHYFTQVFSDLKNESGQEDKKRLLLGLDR

[5] = biological target: Casein kinase I isoform delta (Homo sapiens, UniProt P48730); assay: Inhibition of N-terminal GST-tagged human recombinant CK1delta (1 to 294 residues) expressed in Escherichia coli incubated for 60 mins in presence of ATP by Kinase-glo luminescent assay
Chain of Casein kinase I isoform delta (P48730 whole entry, the tested form may be a part, canonical isoform): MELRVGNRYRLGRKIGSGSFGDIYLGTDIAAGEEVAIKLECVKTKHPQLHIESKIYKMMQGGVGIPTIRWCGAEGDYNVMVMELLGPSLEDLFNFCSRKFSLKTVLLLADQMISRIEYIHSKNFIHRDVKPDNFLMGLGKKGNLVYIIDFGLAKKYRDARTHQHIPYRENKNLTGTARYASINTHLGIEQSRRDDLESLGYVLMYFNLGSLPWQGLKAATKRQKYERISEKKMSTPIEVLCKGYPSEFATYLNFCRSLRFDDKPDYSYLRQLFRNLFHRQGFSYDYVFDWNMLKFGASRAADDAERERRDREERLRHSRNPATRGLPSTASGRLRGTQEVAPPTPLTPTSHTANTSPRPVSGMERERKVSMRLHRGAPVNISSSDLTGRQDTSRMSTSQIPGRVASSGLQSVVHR

HeLa = assay: Cytotoxicity against human HeLa cells assessed as reduction in cell viability measured after 24 hrs by MTT assay; assay type: functional, cell-based
RAW264.7 [6] = assay: Antiinflammatory activity in LPS-induced mouse RAW264.7 cells assessed as reduction in COX-2 level at 100 uM pretreated for 1 hr followed by LPS stimulation and measured after 48 hrs by ELISA relative to control; assay type: functional; set-up: scale not given: the % may be the effect or the level left; conditions: time 49 hrs
[7] = biological target: Alpha-2B adrenergic receptor (Homo sapiens, UniProt P18089); assay: Binding affinity to alpha2B receptor (unknown origin) assessed as inhibition constant
Chain of Alpha-2B adrenergic receptor (P18089 whole entry): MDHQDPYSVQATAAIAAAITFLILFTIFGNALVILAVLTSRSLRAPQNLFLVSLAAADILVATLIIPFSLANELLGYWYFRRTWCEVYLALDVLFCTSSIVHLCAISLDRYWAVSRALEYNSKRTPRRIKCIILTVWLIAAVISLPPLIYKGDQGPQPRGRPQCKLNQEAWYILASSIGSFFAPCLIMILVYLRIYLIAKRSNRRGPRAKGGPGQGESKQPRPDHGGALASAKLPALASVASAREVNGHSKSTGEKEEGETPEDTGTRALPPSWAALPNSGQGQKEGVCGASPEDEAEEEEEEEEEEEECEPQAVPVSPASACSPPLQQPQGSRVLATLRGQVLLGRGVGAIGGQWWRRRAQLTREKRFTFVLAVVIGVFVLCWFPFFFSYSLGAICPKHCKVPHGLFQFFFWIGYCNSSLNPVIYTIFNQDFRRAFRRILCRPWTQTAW

[8] = Metal chelating activity assessed as iron chelation by CAS assay
Acetylcholinesterase [9] = biological target: T1, Acetylcholinesterase (Homo sapiens, UniProt P22303); assay: Inhibition of Acetylcholinesterase (unknown origin) using acetylthiocholine iodide as substrate incubated for 20 mins by Ellaman's method
T1 sequence (P22303 whole entry): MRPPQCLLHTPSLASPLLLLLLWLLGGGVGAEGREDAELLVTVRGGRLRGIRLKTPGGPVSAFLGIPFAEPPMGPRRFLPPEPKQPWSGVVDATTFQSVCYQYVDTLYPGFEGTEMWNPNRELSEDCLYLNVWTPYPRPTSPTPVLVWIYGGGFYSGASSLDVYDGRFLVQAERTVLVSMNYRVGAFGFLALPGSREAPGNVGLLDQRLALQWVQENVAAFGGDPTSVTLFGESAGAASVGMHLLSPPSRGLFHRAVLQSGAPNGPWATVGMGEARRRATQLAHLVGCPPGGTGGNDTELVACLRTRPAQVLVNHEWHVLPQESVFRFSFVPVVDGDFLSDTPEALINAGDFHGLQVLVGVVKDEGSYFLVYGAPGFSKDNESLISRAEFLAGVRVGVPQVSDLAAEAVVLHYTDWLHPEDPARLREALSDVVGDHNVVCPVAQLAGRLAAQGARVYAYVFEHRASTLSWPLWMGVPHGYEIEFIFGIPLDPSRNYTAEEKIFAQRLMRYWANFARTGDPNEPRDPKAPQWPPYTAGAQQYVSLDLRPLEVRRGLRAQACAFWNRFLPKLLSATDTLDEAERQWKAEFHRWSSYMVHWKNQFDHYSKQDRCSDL

Acetylcholinesterase [10] = biological target: T1, Acetylcholinesterase; assay: Inhibition of human AchE using acetylthiocholine iodide as substrate incubated for 20 mins by Ellman's assay; conditions: read-out: EC50 (the source's name)
[11] = Antioxidant activity assessed as DPPH radical scavenging activity; assay type: functional
Helicoverpa armigera = assay: Antifeedant activity against Helicoverpa armigera at 100 uM relative to control; assay type: functional
Acetylcholinesterase [12] = biological target: T1, Acetylcholinesterase; assay: Inhibition of AChE (unknown origin) by Ellman's method
Cholinesterase = Cholinesterase (Homo sapiens, UniProt P06276); assay: Inhibition of butyrylcholinesterase (unknown origin)
Chain of Cholinesterase (P06276 whole entry): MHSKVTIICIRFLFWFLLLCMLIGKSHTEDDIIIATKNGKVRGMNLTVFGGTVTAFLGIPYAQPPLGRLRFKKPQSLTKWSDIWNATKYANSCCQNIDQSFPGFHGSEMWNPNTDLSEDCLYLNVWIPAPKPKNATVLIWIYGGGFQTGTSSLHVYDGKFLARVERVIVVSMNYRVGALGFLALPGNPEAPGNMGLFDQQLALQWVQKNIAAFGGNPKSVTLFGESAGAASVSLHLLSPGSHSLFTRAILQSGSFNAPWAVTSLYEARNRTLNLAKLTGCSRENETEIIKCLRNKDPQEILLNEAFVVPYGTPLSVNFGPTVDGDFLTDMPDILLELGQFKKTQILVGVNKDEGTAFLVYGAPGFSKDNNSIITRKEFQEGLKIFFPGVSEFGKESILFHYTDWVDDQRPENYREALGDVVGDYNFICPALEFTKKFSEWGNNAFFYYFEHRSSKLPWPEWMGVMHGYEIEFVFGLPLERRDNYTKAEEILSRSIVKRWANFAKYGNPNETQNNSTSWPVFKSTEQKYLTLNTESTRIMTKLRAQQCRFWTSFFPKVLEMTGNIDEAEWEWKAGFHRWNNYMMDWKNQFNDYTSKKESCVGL

RAW264.7 [13] = assay: Anti-inflammatory activity against mouse RAW264.7 cells assessed as inhibition of LPS-induced NO production at 10 uM preincubated with compound for 2 hrs followed by LPS stimulation and measured after 24 hrs by Griess reagent based analysis; assay type: functional, cell-based
[14] = Immunosuppressive activity in Kunming mouse splenocyte assessed as reduction in ConA-stimulated T-lymphocytes proliferation at 20 uM incubated for 72 hrs by CCK-8 assay relative to control; assay type: functional, T-cell; set-up: scale not given: the % may be the effect or the level left
[15] = biological target: Tyrosine-protein kinase JAK3 (Homo sapiens, UniProt P52333); assay: Inhibition of JAK3 (unknown origin) preincubated for 1 hr followed by substrate addition and measured after 1 hr in the presence of ATP by FRET-based Z'-Lyte assay
Chain of Tyrosine-protein kinase JAK3 (P52333 whole entry): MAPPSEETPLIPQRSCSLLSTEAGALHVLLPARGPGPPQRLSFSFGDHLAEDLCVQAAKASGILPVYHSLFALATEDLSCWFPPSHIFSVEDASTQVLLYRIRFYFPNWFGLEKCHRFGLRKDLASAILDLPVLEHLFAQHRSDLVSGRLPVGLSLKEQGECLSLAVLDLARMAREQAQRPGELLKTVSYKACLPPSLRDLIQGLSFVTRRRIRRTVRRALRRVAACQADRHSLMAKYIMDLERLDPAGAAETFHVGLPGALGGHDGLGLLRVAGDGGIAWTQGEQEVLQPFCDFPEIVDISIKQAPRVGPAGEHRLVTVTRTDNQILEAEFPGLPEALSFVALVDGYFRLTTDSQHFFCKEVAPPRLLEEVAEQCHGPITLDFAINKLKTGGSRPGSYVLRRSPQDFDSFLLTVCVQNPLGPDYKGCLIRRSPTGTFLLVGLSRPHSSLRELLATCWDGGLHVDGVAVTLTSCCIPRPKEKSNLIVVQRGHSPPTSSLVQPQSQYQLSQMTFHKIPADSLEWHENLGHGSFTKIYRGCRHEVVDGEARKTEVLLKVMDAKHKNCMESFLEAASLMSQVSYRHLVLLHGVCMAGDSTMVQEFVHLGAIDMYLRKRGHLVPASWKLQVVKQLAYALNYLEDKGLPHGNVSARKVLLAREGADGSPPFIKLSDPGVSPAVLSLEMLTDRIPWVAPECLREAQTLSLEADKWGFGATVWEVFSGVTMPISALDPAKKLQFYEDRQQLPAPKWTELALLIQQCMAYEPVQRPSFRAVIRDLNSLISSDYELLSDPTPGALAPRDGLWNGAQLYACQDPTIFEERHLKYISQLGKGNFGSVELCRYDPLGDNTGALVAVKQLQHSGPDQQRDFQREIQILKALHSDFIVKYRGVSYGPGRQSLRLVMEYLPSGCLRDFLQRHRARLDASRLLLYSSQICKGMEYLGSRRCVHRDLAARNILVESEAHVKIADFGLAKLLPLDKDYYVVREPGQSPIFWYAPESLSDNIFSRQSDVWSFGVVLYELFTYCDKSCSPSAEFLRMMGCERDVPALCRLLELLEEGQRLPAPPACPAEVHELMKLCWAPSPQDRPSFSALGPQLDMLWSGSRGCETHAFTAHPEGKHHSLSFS

[16] = biological target: Beta-1 adrenergic receptor (Homo sapiens) (UniProt P08588); assay: Agonist activity at ARbeta1 (unknown origin) expressed in CHO-K1 cells co-expressing G alpha 15 assessed as inhibition of isoproterenol induced calcium response upto 100 uM incubated for 10 mins by calcium mobilization assay relative to control; assay type: functional, cell-based; set-up: Activity: scale not given: the % may be the effect or the level left
Chain of Beta-1 adrenergic receptor (Homo sapiens) (P08588 whole entry, looked up): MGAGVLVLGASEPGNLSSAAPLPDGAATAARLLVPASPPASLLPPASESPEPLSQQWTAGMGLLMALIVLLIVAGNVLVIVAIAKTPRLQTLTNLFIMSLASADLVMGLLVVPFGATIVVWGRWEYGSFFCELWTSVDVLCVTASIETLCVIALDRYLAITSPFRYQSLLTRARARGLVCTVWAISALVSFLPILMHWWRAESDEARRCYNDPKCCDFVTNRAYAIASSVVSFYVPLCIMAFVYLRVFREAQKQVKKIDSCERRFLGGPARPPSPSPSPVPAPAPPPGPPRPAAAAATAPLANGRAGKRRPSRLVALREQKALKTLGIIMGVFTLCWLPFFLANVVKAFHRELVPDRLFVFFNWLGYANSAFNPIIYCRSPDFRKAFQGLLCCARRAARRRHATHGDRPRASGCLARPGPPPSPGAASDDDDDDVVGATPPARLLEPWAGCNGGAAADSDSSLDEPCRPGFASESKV

Structure (SMILES): COc1cc(/C=C/C(=O)O[C@H]2[C@H](OC[C@H]3O[C@@H](Oc4cc5c(cc4O)C[C@@H](C(=O)O)N5C(=O)/C=C/c4ccc(O)c(OC)c4)[C@H](O)[C@@H](O)[C@@H]3O)O[C@H](CO)[C@@H](O[C@@H]3O[C@H](CO)[C@@H](O)[C@H](O)[C@H]3O)[C@@H]2O)ccc1O
Activity (RAW264.7 [1]): 45.2%
Activity (RAW264.7 [2]): 75.6%

Structure (SMILES): COc1cc2c(cc1O)[C@@H]1Cc3cc(O)c(O)cc3C[N@@+]1(C)CC2
IC50 (SGC-7901): 85.1 µM

IC50 [3]: 3.1 µM
IC50 [4]: 10 µM
IC50 [5]: 3.9 µM
Structure (SMILES): O=c1oc2cc(O)c(O)cc2c2c3c4cc(O)c(O)cc4oc(=O)c3n(CCc3ccc(O)c(O)c3)c12

Structure (SMILES): Oc1cc2c(cc1O)[C@H](C1=C[C@@]3(O)CC/C=C\CCCCN4CC[C@@H]1[C@]1(C[C@@H]5/C=C\CCCCN5[C@H]13)C4)NCC2
IC50 (HeLa): 5.7 µM

Structure (SMILES): CS(=O)(=O)Nc1ccc([N+](=O)[O-])cc1OC1CCCCC1 [NS-398]
Activity (RAW264.7 [6]): 97.1%

Ki [7]: 5.9 µM
Structure (SMILES): COc1cc(CCN(C)C)c2c(c1O)SC(CCNC(=N)N)(C1=NCCc3cc(O)c(O)cc31)S2 (stereo unspecified)

EC50 [8]: 28 µM
Structure (SMILES): NC[C@H](CCCCNC(=O)c1cccc(O)c1O)N1C(=O)c2c(ccc(O)c2O)[C@@H](c2ccccc2)[C@]1(O)C(=O)O

Structure (SMILES): O=Cc1ccc2n1CCc1cc(O)c(O)cc1C2
IC50 (Acetylcholinesterase [9]): 58.4 µM

Ki [7]: 5.9 µM
Structure (SMILES): COc1cc(CCN(C)C)c2c(c1OC)SC(CCNC(=N)N)(C1=NCCc3cc(O)c(O)cc31)S2 (stereo unspecified)

EC50 [8]: 30.1 µM
Structure (SMILES): NC[C@H](CCCCNC(=O)c1cccc(O)c1O)N1C(=O)c2c(ccc(O)c2O)[C@@H](c2c[nH]c3ccccc23)[C@]1(O)C(=O)O

Structure (SMILES): O=C(/C=C/c1ccc(O)cc1)n1ccc2cc(O)c(O[C@@H]3O[C@H](CO)[C@@H](O)[C@H](O)[C@H]3O)cc21
IC50 (Acetylcholinesterase [10]): 58.8 µM

Structure (SMILES): COc1cc(/C=C/C(=O)n2ccc3cc(O)c(O)cc32)ccc1O
EC50 [11]: 13.9 µM
IC50 (Acetylcholinesterase [10]): 46.8 µM

Structure (SMILES): Oc1cc2c(cc1O)[C@@H](C1=C[C@@]3(O)CC/C=C\CCCCN4CC[C@@H]1[C@]1(C[C@@H]5/C=C\CCCCN5[C@H]13)C4)NCC2
IC50 (HeLa): 4.2 µM

Structure (SMILES): O=C(/C=C/c1ccc(O)cc1)NCCc1ccc(O)c(O)c1
Activity (Helicoverpa armigera): 65.1%
EC50 (Acetylcholinesterase [12]): 16.9 µM
EC50 (Cholinesterase): 41.3 µM

IC50 (RAW264.7 [13]): 2 µM
Structure (SMILES): C[C@@H]1C[C@H]2[C@@H]3CCC4=CC(=O)C=C[C@]4(C)[C@@]3(F)[C@@H](O)C[C@]2(C)[C@@]1(O)C(=O)CO [DEXAMETHASONE]

Structure (SMILES): CC(=O)NCCc1cc(O)c(O)cc1[C@H](NC(C)=O)C(=O)c1ccc(O)c(O)c1
Activity [14]: 5%

Structure (SMILES): CO[C@H](CNC(=O)/C=C/c1ccc(O)cc1)c1ccc(O)c(O)c1
Activity (Helicoverpa armigera): 61.6%
EC50 (Acetylcholinesterase [12]): 23.1 µM
EC50 (Cholinesterase): 46.9 µM

Structure (SMILES): COc1cc(/C=C/C(=O)O[C@H]2[C@H](OC[C@H]3O[C@@H](Oc4cc5c(cc4O)C[C@@H](C(=O)O)N5C(=O)/C=C/c4ccc(O)c(O[C@@H]5O[C@H](CO)[C@@H](O)[C@H](O)[C@H]5O)c4)[C@H](O)[C@@H](O)[C@@H]3O)O[C@H](CO)[C@@H](O[C@@H]3O[C@H](COC(=O)/C=C/c4cc(OC)c(O)c(OC)c4)[C@@H](O)[C@H](O)[C@H]3O)[C@@H]2O)ccc1O
Activity (RAW264.7 [1]): 22.4%
Activity (RAW264.7 [2]): 63.2%

IC50 [15]: 12.6 µM
Structure (SMILES): Cc1cnc(-c2ccc(O)c(O)c2)c(C)n1

Structure (SMILES): C/C=C(\C)C(=O)O[C@H]1C[C@@H](OC(C)=O)[C@@]2(C(=O)OC)CO[C@H]3[C@@H](O)[C@@](C)([C@]45O[C@@]4(C)[C@H]4C[C@@H]5O[C@@H]5OC=C[C@@]54O)[C@H]4[C@]1(CO[C@]4(O)C(=O)OC)[C@@H]32 [AZADIRACTIN]
EC50 (Acetylcholinesterase [12]): 29.3 µM
EC50 (Cholinesterase): 68.1 µM

Structure (SMILES): COc1cc(/C=C/C(=O)N2c3cc(O[C@@H]4O[C@H](CO[C@@H]5O[C@H](CO)[C@@H](O)[C@H](O)[C@H]5OC(=O)/C=C/c5cc(OC)c(O)c(OC)c5)[C@@H](O)[C@H](O)[C@H]4O)c(O)cc3C[C@H]2C(=O)O)ccc1O
Activity (RAW264.7 [1]): 38.9%
Activity (RAW264.7 [2]): 82.4%

IC50 [3]: 3 µM
IC50 [4]: 1.1 µM
IC50 [5]: > 10 µM
Structure (SMILES): COc1cc2c(cc1O)CCn1c-2c(-c2ccc(O)c(O)c2)c2c3cc(O)c(OC)cc3oc(=O)c21

Activity [16]: 13.7%
Structure (SMILES): OCc1ccc(C2=NCCc3cc(O)c(O)cc32)o1
